Results taken from patent US11517571B2, “Use of kinase inhibitors to manage tuberculosis and other infectious diseases” (priority 2015, dated 2022).

How the values were obtained:
[1] = in vivo
[2] = system: Mtb within infected macrophages; assay: Mtb in infected macrophages: bacterial load and phagosome-to-lysosome translocation; assay type: cell-based
mycobacterium [3] = assay: In vivo studies with animals infected with mycobacterium
Mtb = assay: Rhesus macaque latent TB reactivated by SIV; assay type: in vivo, Rhesus macaques; details: then SIV
c-Kit = c-Kit (Homo sapiens, UniProt P10721); details: in vivo
[4] = Drug concentration in the blood after administration
mycobacterium [5] = assay: Mice infected with mycobacterium, CFU in the spleen; assay type: in vivo; details: 7 days p.i., FIG. 2
Experimental: Mice infected with mycobacterium were administered […], rifabutin (2.5 mg/kg/day) alone, and/or a combination of both. CFU in the spleen were determined 7 days (p.i.).

c-Kit, sequence (P10721 26-976): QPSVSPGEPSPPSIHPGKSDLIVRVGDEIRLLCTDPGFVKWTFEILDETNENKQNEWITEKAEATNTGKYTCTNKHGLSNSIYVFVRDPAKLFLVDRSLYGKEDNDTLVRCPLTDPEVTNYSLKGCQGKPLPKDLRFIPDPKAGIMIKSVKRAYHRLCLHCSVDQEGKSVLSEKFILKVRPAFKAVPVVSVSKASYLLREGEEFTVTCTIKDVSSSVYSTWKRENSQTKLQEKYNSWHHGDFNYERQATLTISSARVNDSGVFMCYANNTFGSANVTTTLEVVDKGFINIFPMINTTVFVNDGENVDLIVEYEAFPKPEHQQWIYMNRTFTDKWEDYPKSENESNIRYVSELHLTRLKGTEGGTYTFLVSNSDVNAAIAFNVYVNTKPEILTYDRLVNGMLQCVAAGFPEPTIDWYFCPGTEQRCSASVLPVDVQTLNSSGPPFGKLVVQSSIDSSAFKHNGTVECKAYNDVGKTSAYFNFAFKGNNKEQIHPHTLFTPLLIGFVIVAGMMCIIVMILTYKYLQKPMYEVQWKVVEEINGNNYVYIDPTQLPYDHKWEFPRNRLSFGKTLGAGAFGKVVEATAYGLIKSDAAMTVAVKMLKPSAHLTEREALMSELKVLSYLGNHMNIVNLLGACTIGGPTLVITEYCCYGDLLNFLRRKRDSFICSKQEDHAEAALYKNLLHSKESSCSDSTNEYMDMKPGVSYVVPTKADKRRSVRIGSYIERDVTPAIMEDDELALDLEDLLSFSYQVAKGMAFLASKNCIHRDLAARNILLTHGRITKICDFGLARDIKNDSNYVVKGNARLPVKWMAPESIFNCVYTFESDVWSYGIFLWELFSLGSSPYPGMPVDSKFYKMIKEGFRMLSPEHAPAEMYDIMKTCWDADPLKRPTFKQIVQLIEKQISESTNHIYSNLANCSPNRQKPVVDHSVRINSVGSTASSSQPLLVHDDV

Cc1ccc(NC(=O)c2ccc(CN3CCN(C)CC3)cc2)cc1Nc1nccc(-c2cccnc2)n1 [imatinib, N-(4-methyl-3-((4-(pyridin-3-yl)pyrimidin-2-yl)amino)phenyl)-4-((4-methylpiperazin-1-yl)methyl)benzamide]
concentration in the blood [1]: ~100 nM
bacterial load in macrophages ([2]; FIG. 1): decreases bacterial load
translocation of Mtb from the phagosome into the lysosome ([2]; at peak concentration in the micromolar range, depends on Abl): induces translocation of Mtb
amount of granulomatous lesions within the liver (mycobacterium [3]): reduced the amount of granulomatous lesions
bacterial load in macrophages (mycobacterium [3]): reduced bacterial load in macrophages
survival (Mtb; latent infection for 6-10 weeks, daily treatment, FIG. 3B): survived
TB reactivation induced by SIV (Mtb; latent infection): prevents reactivation
myelopoiesis (stem cells divide and differentiate along the myeloid lineage) (c-Kit): encourages the stem cells to divide and differentiate along the myeloid lineage
numbers of innate immune cells in the blood and organs (c-Kit): increase
peak concentration [4]: micromolar range
time to peak concentration [4]: ≤ 6 h
bacterial load (CFU in the spleen) (mycobacterium [5]; 100 mg/kg/day alone): decrease in bacterial load

CO[C@H]1/C=C/O[C@@]2(C)Oc3c(C)c(O)c4c(c3C2=O)C2=NC3(CCN(CC(C)C)CC3)NC2=C(NC(=O)/C(C)=C\C=C\[C@H](C)[C@H](O)[C@@H](C)[C@@H](O)[C@@H](C)[C@H](OC(C)=O)[C@@H]1C)C4=O [Rifabutin]
bacterial load (CFU in the spleen) (mycobacterium [5]; rifabutin 2.5 mg/kg/day alone): decrease in bacterial load
